These results are taken from patent publication US20110166121A1 (LG LIFE SCIENCES LTD., priority 2008, published 2011).

In the assay the test system is Human platelet aggregation caused by ADP. Nature of the assay: Inhibition of ADP-induced platelet aggregation (Mimic-human PRP). In kind it is cell-based. The note with it: 20 μM ADP, human platelet concentrate diluted with PPP, absorption at 595 nm. The method in brief: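 Ki came from non-linear sigmoidal fits of inhibition, measured as the 3-min rise in absorbance at 595 nm after 20 μM ADP, relative to 0/20 μM ADP controls. Platelets (3–4×10^8/mL in PPP-diluted human PRP) were exposed to 0.01–30 μM compound for 20 min at room temperature beforehand.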

Each structure is given as a SMILES string.

`CCCC(=O)N1CCC[C@H]1COc1nc(N2CCn3c(nnc3C(F)(F)F)C2)c2cc(CCC)sc2n1` [Example 8-32, 1-{(S)-2-[6-Propyl-4-(3-trifluoromethyl-5,6-dihydro-8H-[1,2,4]triazolo[4,3-a]pyrazin-7-yl)-thieno[2,3-d]pyrimidin-2-yloxymethyl]-pyrrolidin-1-yl}-butan-1-one]: the inhibition constant (Ki) – broadly, the equilibrium dissociation constant of an inhibitor or competing ligand from its target – was 62 nM. Take `CCCc1cc2c(N3CCn4c(nnc4C(F)(F)F)C3)nc(OC[C@@H]3CCCN3C(=O)C(C)C)nc2s1` [Example 8-33, 2-Methyl-1-{(S)-2-[6-propyl-4-(3-trifluoromethyl-5,6-dihydro-8H-[1,2,4]triazolo[4,3-a]pyrazin-7-yl)-thieno[2,3-d]pyrimidin-2-yloxymethyl]-pyrrolidin-1-yl}-propan-1-one]: the affinity, expressed as Ki, was 43 nM. For `CCCc1cc2c(N3CCn4c(nnc4C(F)(F)F)C3)nc(OC[C@@H]3CCN(C(C)=O)C3)nc2s1` [Example 8-34, 1-{(R)-3-[6-Propyl-4-(3-trifluoromethyl-5,6-dihydro-8H-[1,2,4]triazolo[4,3-a]pyrazin-7-yl)-thieno[2,3-d]pyrimidin-2-yloxymethyl]-pyrrolidin-1-yl}-ethanone] the value was 45 nM; for `CCCC(=O)N1CC[C@@H](COc2nc(N3CCn4c(nnc4C(F)(F)F)C3)c3cc(CCC)sc3n2)C1` [Example 8-35, 1-{(R)-3-[6-Propyl-4-(3-trifluoromethyl-5,6-dihydro-8H-[1,2,4]triazolo[4,3-a]pyrazin-7-yl)-thieno[2,3-d]pyrimidin-2-yloxymethyl]-pyrrolidin-1-yl}-butan-1-one], 49 nM; for `CCCc1cc2c(N3CCn4c(nnc4C(F)(F)F)C3)nc(OC[C@@H]3CCN(C(=O)C(C)C)C3)nc2s1` [Example 8-36, 2-Methyl-1-{(R)-3-[6-propyl-4-(3-trifluoromethyl-5,6-dihydro-8H-[1,2,4]triazolo[4,3-a]pyrazin-7-yl)-thieno[2,3-d]pyrimidin-2-yloxymethyl]-pyrrolidin-1-yl}-propan-1-one], 45 nM. In turn, `CCCc1cc2c(N3CCn4c(nnc4C(F)(F)F)C3)nc(OC[C@H]3CCN(C(C)=O)C3)nc2s1` [Example 8-37, 1-{(S)-3-[6-Propyl-4-(3-trifluoromethyl-5,6-dihydro-8H-[1,2,4]triazolo[4,3-a]pyrazin-7-yl)-thieno[2,3-d]pyrimidin-2-yloxymethyl]-pyrrolidin-1-yl}-ethanone] gave an inhibitory constant (Ki) of 43 nM. On to `CCCC(=O)N1CC[C@H](COc2nc(N3CCn4c(nnc4C(F)(F)F)C3)c3cc(CCC)sc3n2)C1` [Example 8-38, 1-{(S)-3-[6-Propyl-4-(3-trifluoromethyl-5,6-dihydro-8H-[1,2,4]triazolo[4,3-a]pyrazin-7-yl)-thieno[2,3-d]pyrimidin-2-yloxymethyl]-pyrrolidin-1-yl}-butan-1-one], for which the Ki worked out at 110 nM. Against the preceding molecule, the Ki is about 2.6-fold higher.

As for `CCCc1cc2c(N3CCn4c(nnc4C(F)(F)F)C3)nc(OC[C@H]3CCN(C(=O)C(C)C)C3)nc2s1` [Example 8-39, 2-Methyl-1-{(S)-3-[6-propyl-4-(3-trifluoromethyl-5,6-dihydro-8H-[1,2,4]triazolo[4,3-a]pyrazin-7-yl)-thieno[2,3-d]pyrimidin-2-yloxymethyl]-pyrrolidin-1-yl}-propan-1-one], the Ki is 76 nM. `CCCc1cc2c(N3CCn4c(nnc4C(F)(F)F)C3)nc(N3CC(O)C(NC(=O)OCC)C3)nc2s1` (stereo not shown) [Example 9-1, {4-Hydroxy-1-[6-propyl-4-(3-trifluoromethyl-5,6-dihydro-8H-[1,2,4]triazolo[4,3-a]pyrazin-7-yl)-thieno[2,3-d]pyrimidin-2-yl]-pyrrolidin-3-yl}-carbamic acid ethyl ester] came in with a Ki of 18 nM. This Ki is about 4.2-fold lower than that of the molecule before. The figure for `CCCc1cc2c(N3CCn4c(nnc4C(F)(F)F)C3)nc(N3CC(O)C(NC(=O)OC)C3)nc2s1` (stereo not shown) [Example 9-2, {4-Hydroxy-1-[6-propyl-4-(3-trifluoromethyl-5,6-dihydro-8H-[1,2,4]triazolo[4,3-a]pyrazin-7-yl)-thieno[2,3-d]pyrimidin-2-yl]-pyrrolidin-3-yl}-carbamic acid methyl ester] is 8 nM; for `CCCc1cc2c(N3CCn4c(nnc4C(F)(F)F)C3)nc(N3CC[C@H](NC(=O)Oc4ccc(F)cc4)C3)nc2s1` [Example 9-4, {(S)-1-[6-Propyl-4-(3-trifluoromethyl-5,6-dihydro-8H-[1,2,4]triazolo[4,3-a]pyrazin-7-yl)-thieno[2,3-d]pyrimidin-2-yl]-pyrrolidin-3-yl}-carbamic acid 4-fluoro-phenyl ester] it is 280 nM. The molecule `CCCc1cc2c(N3CCn4c(nnc4C(F)(F)F)C3)nc(N3CC[C@H](NC(=O)C4CCCC4)C3)nc2s1` [Example 9-5, Cyclopentanecarboxylic Acid {(S)-1-[6-propyl-4-(3-trifluoromethyl-5,6-dihydro-8H-[1,2,4]triazolo[4,3-a]pyrazin-7-yl)-thieno[2,3-d]pyrimidin-2-yl]-pyrrolidin-3-yl}-amide] showed a Ki of 130 nM. For `CCCc1cc2c(N3CCn4c(nnc4C(F)(F)F)C3)nc(N3CC[C@H](NC(=O)C4CCCCC4)C3)nc2s1` [Example 9-9, Cyclohexanecarboxylic Acid {(S)-1-[6-propyl-4-(3-trifluoromethyl-5,6-dihydro-8H-[1,2,4]triazolo[4,3-a]pyrazin-7-yl)-thieno[2,3-d]pyrimidin-2-yl]-pyrrolidin-3-yl}-amide] the value was 300 nM; for `CCCc1cc2c(N3CCn4c(nnc4C(F)(F)F)C3)nc(N3CC[C@H](NC(=O)c4ccc(Cl)s4)C3)nc2s1` [Example 9-11, 5-Chloro-thiophene-2-carboxylic Acid {(S)-1-[6-propyl-4-(3-trifluoromethyl-5,6-dihydro-8H-[1,2,4]triazolo[4,3-a]pyrazin-7-yl)-thieno[2,3-d]pyrimidin-2-yl]-pyrrolidin-3-yl}-amide], 48 nM.

Regarding `CCCc1cc2c(N3CCn4c(nnc4C(F)(F)F)C3)nc(N3CC[C@H](NC(=O)c4cc(F)c(F)c(F)c4)C3)nc2s1` [Example 9-13, 3,4,5-Trifluoro-N-{(S)-1-[6-propyl-4-(3-trifluoromethyl-5,6-dihydro-8H-[1,2,4]triazolo[4,3-a]pyrazin-7-yl)-thieno[2,3-d]pyrimidin-2-yl]-pyrrolidin-3-yl}-benzamide], the inhibition constant Ki amounted to 300 nM.

In turn, `CCCc1cc2c(N3CCn4c(nnc4C(F)(F)F)C3)nc(N3CC[C@H](NC(=O)NC4CCCC4)C3)nc2s1` [Example 9-15, 1-Cyclopentyl-3-{(S)-1-[6-propyl-4-(3-trifluoromethyl-5,6-dihydro-8H-[1,2,4]triazolo[4,3-a]pyrazin-7-yl)-thieno[2,3-d]pyrimidin-2-yl]-pyrrolidin-3-yl}-urea] showed a Ki of 42 nM. This Ki is about 7.1-fold lower than that of the molecule before. On to `CCCc1cc2c(N3CCn4c(nnc4C(F)(F)F)C3)nc(N3CC[C@H](NC(=O)Nc4ccc(F)c(F)c4)C3)nc2s1` [Example 9-16, 1-(3,4-Difluoro-phenyl)-3-{(S)-1-[6-propyl-4-(3-trifluoromethyl-5,6-dihydro-8H-[1,2,4]triazolo[4,3-a]pyrazin-7-yl)-thieno[2,3-d]pyrimidin-2-yl]-pyrrolidin-3-yl}-urea], for which the inhibition constant Ki stood at 880 nM.

`CCCc1cc2c(N3CCn4c(nnc4C(F)(F)F)C3)nc(N3CC[C@H](NC(=O)NS(=O)(=O)c4ccc(Cl)s4)C3)nc2s1` [Example 9-17]: the Ki amounted to 19 nM.

`CCCc1cc2c(N3CCn4c(nnc4C(F)(F)F)C3)nc(N3CC[C@H](NC(=O)OC)C3)nc2s1` [Example 9-18, {(S)-1-[6-Propyl-4-(3-trifluoromethyl-5,6-dihydro-8H-[1,2,4]triazolo[4,3-a]pyrazin-7-yl)-thieno[2,3-d]pyrimidin-2-yl]-pyrrolidin-3-yl}-carbamic acid methyl ester] yielded a Ki of 10 nM. Regarding `CCCc1cc2c(N3CCn4c(nnc4C(F)(F)F)C3)nc(OCCNC(=O)OC)nc2s1` [Example 9-19, {2-[6-Propyl-4-(3-trifluoromethyl-5,6-dihydro-8H-[1,2,4]triazolo[4,3-a]pyrazin-7-yl)-thieno[2,3-d]pyrimidin-2-yloxy]-ethyl}-carbamic acid methyl ester], the Ki stood at 3 nM. This Ki is about 3.3-fold lower than that of the molecule before. For `CCCc1cc2c(N3CCn4c(nnc4C(F)(F)F)C3)nc(N3CC[C@@H](NC(=O)OC)C3)nc2s1` [Example 9-20, {(R)-1-[6-Propyl-4-(3-trifluoromethyl-5,6-dihydro-8H-[1,2,4]triazolo[4,3-a]pyrazin-7-yl)-thieno[2,3-d]pyrimidin-2-yl]-pyrrolidin-3-yl}-carbamic acid methyl ester] the value was 6 nM. In the case of `CCCc1cc2c(N3CCn4c(nnc4C(F)(F)F)C3)nc(N3CC[C@H](NC=O)C3)nc2s1` [Example 9-21, N-{(S)-1-[6-Propyl-4-(3-trifluoromethyl-5,6-dihydro-8H-[1,2,4]triazolo[4,3-a]pyrazin-7-yl)-thieno[2,3-d]pyrimidin-2-yl]-pyrrolidin-3-yl}-formamide], affinity was put at a Ki of 6 nM.

The molecule `CCCc1cc2c(N3CCn4c(nnc4C(F)(F)F)C3)nc(N3CC[C@@H](NC=O)C3)nc2s1` [Example 9-22, N-{(R)-1-[6-Propyl-4-(3-trifluoromethyl-5,6-dihydro-8H-[1,2,4]triazolo[4,3-a]pyrazin-7-yl)-thieno[2,3-d]pyrimidin-2-yl]-pyrrolidin-3-yl}-formamide] came in with an inhibition constant (Ki) of 15 nM. The figure for `CCCc1cc2c(N3CCn4c(nnc4C(F)(F)F)C3)nc(OCCNC=O)nc2s1` [Example 9-23, N-{2-[6-Propyl-4-(3-trifluoromethyl-5,6-dihydro-8H-[1,2,4]triazolo[4,3-a]pyrazin-7-yl)-thieno[2,3-d]pyrimidin-2-yloxy]-ethyl}-formamide] is 3 nM; for `CCCc1cc2c(N3CCn4c(nnc4C(F)(F)F)C3)nc(N3CC[C@H](N(C)C(C)=O)C3)nc2s1` [Example 9-24, N-Methyl-N-{(S)-1-[6-propyl-4-(3-trifluoromethyl-5,6-dihydro-8H-[1,2,4]triazolo[4,3-a]pyrazin-7-yl)-thieno[2,3-d]pyrimidin-2-yl]-pyrrolidin-3-yl}-acetamide] it is 310 nM.
